Reference: patent US9487489B2, “Halogen-substituted pyrazole derivatives as pest-control agents” (BAYER CROPSCIENCE AKTIENGESELLSCHAFT, priority 2013, dated 2016)

What was measured:
[1] = system: adult houseflies (Musca domestica); assay: Musca domestica test (MUSCDO); type: in vivo; conditions: application rate 100 ppm; after 2 days
Description: F. Musca domestica Test (MUSCDO)
(§1) Solvent: dimethyl sulphoxide
(§2) To produce a suitable preparation of active compound, 10 mg of active compound are mixed with 0.5 ml of dimethyl sulphoxide, and the concentrate is diluted with water to the desired concentration.
Vessels containing a sponge treated with sugar solution and the active compound preparation of the desired concentration are populated with 10 adult houseflies (Musca domestica).
After 2 days, the kill in % is determined. 100% means that all of the flies have been killed; 0% means that none of the flies have been killed.

[2] = system: L1 larvae of the Australian sheep blowfly (Lucilia cuprina); assay: Lucilia cuprina test (LUCICU); type: in vivo; conditions: application rate 100 ppm; after 2 days
Description: E. Lucilia cuprina Test (LUCICU)
as §1, §2
About 20 L1 larvae of the Australian sheep blowfly (Lucilia cuprina) are transferred into a test vessel containing minced horsemeat and the active compound preparation of the desired concentration.
After 2 days, the kill in % is determined 100% means that all of the larvae have been killed; 0% means that none of the larvae have been killed.

[3] = system: larvae of the mustard beetle (Phaedon cochleariae); assay: Phaedon cochleariae spray test (PHAECO); type: in vivo; conditions: Chinese cabbage leaf discs, after 7 days
In short: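 Compound dissolved in acetone/dimethylformamide with alkylaryl polyglycol ether emulsifier, made up in water containing 1000 ppm emulsifier, then diluted to test concentrations and sprayed against mustard beetle larvae. Efficacy (% larvae killed) scored after 7 days.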

[4] = system: caterpillars of the armyworm (Spodoptera frugiperda); assay: Spodoptera frugiperda spray test (SPODFR); type: in vivo; conditions: maize leaf discs, after 7 days
In short: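 Maize leaf discs sprayed with compound in acetone/DMF with alkylaryl polyglycol ether emulsifier (1000 ppm) in water, dried, then infested with armyworm caterpillars. Mortality (%) scored after 7 days; 100% = all caterpillars killed, 0% = none killed.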

[5] = system: adult cat fleas (Ctenocephalides felis); assay: Ctenocephalides felis oral test (CTECFE); type: in vivo; conditions: application rate 100 ppm in citrated cattle blood; after 2 days
Description: D. Ctenocephalides felis-oral Test (CTECFE)
as §1
To produce a suitable preparation of active compound, 10 mg of active compound are mixed with 0.5 ml of dimethyl sulphoxide. Dilution with citrated cattle blood gives the desired concentration.
About 20 unfed adult cat fleas (Ctenocephalides felis) are placed into a chamber which is closed at the top and bottom with gauze. A metal cylinder whose bottom end is closed with a parafilm is placed onto the chamber. The cylinder contains the blood/active ingredient preparation, which can be imbibed by the fleas through the parafilm membrane.
After 2 days, the kill in % is determined 100% means that all of the fleas have been killed; 0% means that none of the fleas have been killed.

[6] = system: adult dog ticks (Rhipicephalus sanguineus); assay: Rhipicephalus sanguineus in vitro contact test with adult brown dog ticks (T2); conditions: after 48 h
Description: T2. Rhipicephalus sanguineus-in vitro Contact Tests with Adult Brown Dog Ticks
For the coating of the test tubes, initially 9 mg of active compound are dissolved in 1 ml of acetone p.a. and then diluted with acetone p.a. to the desired concentration. By turning and rocking on an orbital shaker (2 h of rocking rotation at 30 rpm), 250 μl of the solution are distributed homogeneously on the internal walls and the floor of a 25 ml test tube. At 900 ppm active compound solution and 44.7 cm^2 internal surface, an area dose of 5 μg/cm^2 is achieved for homogeneous distribution.
After evaporation of the solvent, the tubes are populated with 5-10 adult dog ticks (Rhipicephalus sanguineus), sealed with a perforated plastic lid and incubated in a horizontal position in the dark at room temperature and ambient humidity. After 48 h, the efficacy is determined. To this end, the ticks are knocked to the floor of the tube and incubated on a hotplate at 45-50° C. for at most 5 min Ticks which remain motionless on the floor or move in an uncoordinated manner such that they are not able to deliberately avoid the heat by climbing upwards are considered to be dead or moribund.
An efficacy of 100% means that all ticks were dead or moribund. 0% efficacy means that none of the ticks had been damaged.

[7] = system: engorged adult female cattle ticks (Boophilus microplus); assay: Boophilus microplus injection test (BOOPMI Inj); type: in vivo; conditions: application rate 20 μg/animal; injection into abdomen; assessed after 7 days
Description: C. Boophilus microplus-injection Test (BOOPMI Inj)
as §1
To produce a suitable preparation of active compound, 10 mg of active compound are mixed with 0.5 ml of solvent, and the concentrate is diluted with solvent to the desired concentration.
1 μl of the active compound solution is injected into the abdomen of 5 engorged adult female cattle ticks (Boophilus microplus). The animals are transferred into dishes and kept in a climate-controlled room.
The activity is assessed after 7 days by laying of fertile eggs. Eggs whose fertility is not visible from the outside are stored in a climate-controlled cabinet until the larvae hatch after about 42 days. An efficacy of 100% means that none of the ticks has laid any fertile eggs; 0% means that all eggs are fertile.

[8] = system: greenhouse red spider mite (Tetranychus urticae); assay: Tetranychus urticae spray test, OP-resistant (TETRUR); type: in vivo; conditions: bean leaf discs, after 6 days
In short: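 Bean leaf discs carrying all stages of OP-resistant Tetranychus urticae were sprayed with compound formulated in acetone/dimethylformamide and diluted in water with 1000 ppm alkylaryl polyglycol ether emulsifier. Mortality (% efficacy, 100% = all mites killed) scored after 6 days.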

[9] = logP determination by HPLC on a reversed-phase column (C18), EEC Directive 79/831 Annex V.A8; type: physicochemical; conditions: HPLC, reversed-phase C18, acetonitrile (0.1% formic acid)/water (0.09% formic acid) gradient
In short: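 Retention on a C18 reversed-phase column (Zorbax Eclipse Plus, 1.8 micron) was used, eluting with acetonitrile/water, each containing formic acid. The gradient ran from 10% to 95% acetonitrile over 4.25 min, then held 1.25 min, at 55° C and 2.0 ml/min, with MS detection.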

Row | Structure (SMILES) | efficacy (kill in %) [1] [%] | efficacy (kill in %) [2] [%] | efficacy in % ([3]; application rate 500 g/ha) [%] | efficacy in % ([4]; application rate 500 g/ha) [%] | efficacy (kill in %) [5] [%] | efficacy (dead or moribund ticks) ([6]; application rate 1 μg/cm^2) [%] | efficacy (dead or moribund ticks) ([6]; application rate 5 μg/cm^2) [%] | efficacy (laying of fertile eggs) [7] [%] | efficacy in % ([3]; application rate 100 g/ha) [%] | efficacy in % ([8]; application rate 100 g/ha) [%] | efficacy in % ([4]; application rate 100 g/ha) [%] | efficacy in % ([8]; application rate 500 g/ha) [%] | logP [9]
1 | Cn1nc(C(F)(F)C(F)(F)F)c(C(F)(F)F)c1-n1cc(-c2cc(C(=O)NC3(C#N)CC3)ccc2Cl)cn1 [Ic-45] | 100 | 100 | 100 | 100 | 100 | – | – | – | – | – | – | – | –
2 | Cc1cc(C(=O)NC2CC2)cc(-c2cnn(-c3c(C(F)(F)F)c(C(F)(F)C(F)(F)F)nn3C)c2)c1 [Ic-54] | – | 100 | 100 | – | 100 | 100 | 100 | 100 | – | – | – | – | –
3 | Cc1ccc(C(=O)NC2CC2)cc1-c1cnn(-c2c(C(F)(F)F)c(C(F)(F)C(F)(F)F)nn2C)c1 [Ic-57] | 100 | 100 | – | – | 100 | – | – | – | 83 | – | – | – | –
4 | Cc1ccc(C(=O)NC2(C#N)CC2)cc1-c1cnn(-c2c(C(F)(F)F)c(C(F)(F)C(F)(F)F)nn2C)c1 [Ic-58] | 80 | 100 | 100 | – | 100 | – | – | 100 | – | – | – | – | –
5 | Cn1nc(C(F)(F)C(F)(F)F)c(C(F)(F)F)c1-n1cc(-c2cc(C(=O)NC3(C#N)CC3)cc(C(F)(F)F)c2)cn1 [Ic-60] | 100 | 100 | 100 | 100 | 100 | – | – | 100 | – | – | – | – | –
6 | COc1cc(C(=O)NC2CC2)cc(-c2cnn(-c3c(C(F)(F)F)c(C(F)(F)C(F)(F)F)nn3C)c2)c1 [Ic-62] | 100 | 100 | 100 | 100 | 95 | – | – | 100 | – | – | – | – | –
7 | Cn1nc(C(F)(F)C(F)(F)F)c(C(F)(F)F)c1-n1cc(-c2cc(C(=O)NC3(C#N)CC3)cc(F)c2F)cn1 [Ic-64] | 80 | 100 | 100 | – | 100 | – | – | 100 | – | 100 | 100 | – | –
8 | Cn1nc(C(F)(F)C(F)(F)F)c(C(F)(F)F)c1-n1cc(-c2ccnc(C(=O)NC3(C#N)CC3)c2)cn1 [Ic-76] | 80 | 100 | 100 | 100 | 100 | – | – | 100 | – | – | – | 80 | –
9 | Cn1nc(C(F)(F)C(F)(F)F)c(C(F)(F)F)c1-n1ccc(-c2ccc(Cl)c(C(=O)NC3(C#N)CC3)c2)n1 [Id-1] | 100 | 100 | – | – | 100 | – | – | 100 | 100 | – | 100 | – | 3.87
